According to ChEMBL document CHEMBL5620394, “Synthesis of new antiproliferative 1,3,4-substituted-pyrrolo[3,2-c]quinoline derivatives, biological and in silico insights” (Eur J Med Chem, 2023):
The source made the active and inactive calls. The rule behind the calls is not given here.

Tests used:
[1] = tested on: PC-3; assay: Antiproliferative activity against human PC-3 cells assessed as cell growth at 10 uM incubated for 48 hrs by sulforhodamine B assay relative to control; type: functional; details: read-out: Activity
[2] = tested on: SF-295; assay: Antiproliferative activity against human SF-295 cells assessed as cell growth at 10 uM incubated for 48 hrs by sulforhodamine B assay relative to control; type: functional; details: read-out: Activity
[3] = tested on: HCT-15; assay: Antiproliferative activity against human HCT-15 cells assessed as cell growth at 10 uM incubated for 48 hrs by sulforhodamine B assay relative to control; type: functional; details: read-out: Activity
[4] = tested on: SNB-75; assay: Antiproliferative activity against human SNB-75 cells assessed as cell growth at 10 uM incubated for 48 hrs by sulforhodamine B assay relative to control; type: functional; details: read-out: Activity
[5] = tested on: MOLT-4; assay: Antiproliferative activity against human MOLT-4 cells assessed as cell growth at 10 uM incubated for 48 hrs by sulforhodamine B assay relative to control; type: functional; details: read-out: Activity
[6] = tested on: MDA-MB-468; assay: Antiproliferative activity against human MDA-MB-468 cells assessed as cell growth at 10 uM incubated for 48 hrs by sulforhodamine B assay relative to control; type: functional; details: read-out: Activity
[7] = tested on: RPMI-8226; assay: Antiproliferative activity against human RPMI-8226 cells assessed as cell growth at 10 uM incubated for 48 hrs by sulforhodamine B assay relative to control; type: functional; details: read-out: Activity
[8] = tested on: IGROV-1; assay: Antiproliferative activity against human IGROV-1 cells assessed as cell growth at 10 uM incubated for 48 hrs by sulforhodamine B assay relative to control; type: functional; details: read-out: Activity
[9] = tested on: CCRF-CEM; assay: Antiproliferative activity against human CCRF-CEM cells assessed as cell growth at 10 uM incubated for 48 hrs by sulforhodamine B assay relative to control; type: functional; details: read-out: Activity
[10] = tested on: SK-OV-3; assay: Antiproliferative activity against human SK-OV-3 cells assessed as cell growth at 10 uM incubated for 48 hrs by sulforhodamine B assay relative to control; type: functional; details: read-out: Activity
[11] = tested on: T47D; assay: Antiproliferative activity against human T47D cells assessed as cell growth at 10 uM incubated for 48 hrs by sulforhodamine B assay relative to control; type: functional; details: read-out: Activity
[12] = tested on: A549; assay: Antiproliferative activity against human A549 cells assessed as cell growth at 10 uM incubated for 48 hrs by sulforhodamine B assay relative to control; type: functional; details: read-out: Activity
[13] = tested on: MDA-MB-435; assay: Antiproliferative activity against human MDA-MB-435 cells assessed as cell growth at 10 uM incubated for 48 hrs by sulforhodamine B assay relative to control; type: functional; details: read-out: Activity
[14] = tested on: KM12; assay: Antiproliferative activity against human KM12 cells assessed as cell growth at 10 uM incubated for 48 hrs by sulforhodamine B assay relative to control; type: functional; details: read-out: Activity
[15] = tested on: UACC-257; assay: Antiproliferative activity against human UACC-257 cells assessed as cell growth at 10 uM incubated for 48 hrs by sulforhodamine B assay relative to control; type: functional; details: read-out: Activity
[16] = tested on: MCF7; assay: Antiproliferative activity against human MCF7 cells assessed as cell growth at 10 uM incubated for 48 hrs by sulforhodamine B assay relative to control; type: functional; details: read-out: Activity
[17] = tested on: K562; assay: Antiproliferative activity against human K562 cells assessed as cell growth at 10 uM incubated for 48 hrs by sulforhodamine B assay relative to control; type: functional; details: read-out: Activity
[18] = tested on: EKVX; assay: Antiproliferative activity against human EKVX cells assessed as cell growth at 10 uM incubated for 48 hrs by sulforhodamine B assay relative to control; type: functional; details: read-out: Activity
[19] = tested on: NCI-H522; assay: Antiproliferative activity against human NCI-H522 cells assessed as cell growth at 10 uM incubated for 48 hrs by sulforhodamine B assay relative to control; type: functional; details: read-out: Activity
[20] = tested on: HOP-62; assay: Antiproliferative activity against human HOP-62 cells assessed as cell growth at 10 uM incubated for 48 hrs by sulforhodamine B assay relative to control; type: functional; details: read-out: Activity
[21] = tested on: HCT-116; assay: Antiproliferative activity against human HCT-116 cells assessed as cell growth at 10 uM incubated for 48 hrs by sulforhodamine B assay relative to control; type: functional; details: read-out: Activity
[22] = tested on: LOX IMVI; assay: Antiproliferative activity against human LOX IMVI cells assessed as cell growth at 10 uM incubated for 48 hrs by sulforhodamine B assay relative to control; type: functional; details: read-out: Activity
[23] = tested on: SR; assay: Antiproliferative activity against human SR cells assessed as cell growth at 10 uM incubated for 48 hrs by sulforhodamine B assay relative to control; type: functional; details: read-out: Activity
[24] = tested on: UO-31; assay: Antiproliferative activity against human UO-31 cells assessed as cell growth at 10 uM incubated for 48 hrs by sulforhodamine B assay relative to control; type: functional; details: read-out: Activity
[25] = tested on: MDA-MB-231; assay: Antiproliferative activity against human MDA-MB-231 cells assessed as cell growth at 10 uM incubated for 48 hrs by sulforhodamine B assay relative to control; type: functional; details: read-out: Activity
[26] = tested on: ACHN; assay: Antiproliferative activity against human ACHN cells assessed as cell growth at 10 uM incubated for 48 hrs by sulforhodamine B assay relative to control; type: functional; details: read-out: Activity
[27] = tested on: NCI-H226; assay: Antiproliferative activity against human NCI-H226 cells assessed as cell growth at 10 uM incubated for 48 hrs by sulforhodamine B assay relative to control; type: functional; details: read-out: Activity
[28] = tested on: CAKI-1; assay: Antiproliferative activity against human CAKI-1 cells assessed as cell growth at 10 uM incubated for 48 hrs by sulforhodamine B assay relative to control; type: functional; details: read-out: Activity
[29] = tested on: MCF7; assay: Antiproliferative activity against human MCF7 cells assessed as reduction in cell growth at 10 to 100 uM incubated for 4 hrs by MTS assay; type: functional, cell-based; details: dose 10-100 µM
[30] = tested on: 786-0; assay: Antiproliferative activity against human 786-0 cells assessed as cell growth at 10 uM incubated for 48 hrs by sulforhodamine B assay relative to control; type: functional; details: read-out: Activity
[31] = tested on: LA-N-5; assay: Antiproliferative activity against human LA-N-5 cells assessed as reduction in cell growth at 10 to 100 uM incubated for 4 hrs by MTS assay; type: functional, cell-based; details: dose 10-100 µM
[32] = tested on: UACC-62; assay: Antiproliferative activity against human UACC-62 cells assessed as cell growth at 10 uM incubated for 48 hrs by sulforhodamine B assay relative to control; type: functional; details: read-out: Activity
[33] = tested on: HL-60; assay: Antiproliferative activity against human HL-60 cells assessed as cell growth at 10 uM incubated for 48 hrs by sulforhodamine B assay relative to control; type: functional; details: read-out: Activity
[34] = tested on: HT-29; assay: Antiproliferative activity against human HT-29 cells assessed as cell growth at 10 uM incubated for 48 hrs by sulforhodamine B assay relative to control; type: functional; details: read-out: Activity
[35] = tested on: MCF7; assay: Antiproliferative activity against human MCF7 cells assessed as inhibition of cell growth incubated for 4 hrs by MTS assay; type: functional
[36] = Antiproliferative activity against human 16HBE14o- cells assessed as inhibition of cell growth incubated for 4 hrs by MTS assay; type: toxicity, cell-based; details: read-out: IG50
[37] = tested on: HeLa; assay: Antiproliferative activity against human HeLa cells assessed as inhibition of cell growth incubated for 4 hrs by MTS assay; type: functional

Structure (SMILES) | growth at 10 µM [1] [%] | growth at 10 µM [2] [%] | growth at 10 µM [4] [%] | growth at 10 µM [5] [%] | growth at 10 µM [7] [%] | growth at 10 µM [9] [%] | growth at 10 µM [11] [%] | growth at 10 µM [15] [%] | growth at 10 µM [16] [%] | growth at 10 µM [17] [%] | growth at 10 µM [19] [%] | growth at 10 µM [23] [%] | growth at 10 µM [24] [%] | growth at 10 µM [25] [%] | growth at 10 µM [27] [%] | growth at 10 µM [28] [%] | growth at 10 µM [30] [%] | growth at 10 µM [32] [%] | growth at 10 µM [33] [%] | growth at 10 µM [34] [%] | also measured
CC(=O)c1c(C)[nH]c2c1c(-c1cc3c(cc1Br)OCO3)nc1ccccc12 | 85.5 | 94.2 | 84 | 83.8 | 96.9 | 92 | 91.4 | 105 | 70.2 | 85.2 | 77 | 74 | 61.5 | 88.2 | 99.7 | 95.6 |  |  |  |  | growth at 10 µM [3]: 97.2%; growth at 10 µM [6]: 109%; growth at 10 µM [8]: 82.5%; growth at 10 µM [10]: 96.7%; growth at 10 µM [12]: 88.7%; growth at 10 µM [13]: 95.6%; growth at 10 µM [14]: 91%; growth at 10 µM [18]: 89.6%; growth at 10 µM [20]: 91.5%; growth at 10 µM [21]: 98.9%; growth at 10 µM [22]: 89.3%; growth at 10 µM [26]: 93%
CC(=O)c1c(C)n(-c2ccccc2)c2c1c(-c1ccccc1)nc1ccccc12 | 85.7 |  | 75.1 | 77.6 | 87.5 | 95.9 | 102 | 98.1 | 89.6 | 76.8 | 77 | 79.5 | 59.6 | 76.3 | 84.2 | 72.3 | 88.5 | 70.4 | 90.7 |  | Activity [29]: Active; Activity [31]: Active
CC(=O)c1c(C)n(C)c2c1c(-c1ccccc1)nc1ccccc12 | 69.8 |  | 85.8 | 89.4 | 79.4 | 92.7 | 98.9 | 96.4 | 95.6 | 102 | 95.6 | 94.7 | 68.8 | 94.3 | 88.4 | 87.2 | 101 | 87.8 | 76.8 | 112 | Activity [29]: Active
CC(=O)c1c(C)n(-c2ccccc2)c2c1c(-c1ccc(C)o1)nc1ccccc12 | 69.6 |  | 93.8 | 76.7 | 70.5 | 74.2 | 99.7 | 90.8 | 88.4 | 71.6 | 71.1 | 80.3 | 79.1 | 73.3 | 41 | 85.3 | 93.6 | 85.1 | 63.4 | 68.4 | Activity [31]: Active
CC(=O)c1c(C)[nH]c2c1c(-c1ccccc1)nc1ccccc12 | 78.6 |  | 42.3 | 106 | 87.9 | 87.2 | 82.5 | 75.1 | 73.7 | 92.6 | 72.3 | 71.9 | 36.6 | 84.4 | 76.7 | 54 | 76.7 | 62.4 | 82.7 | 92.8 | Activity [29]: Active; IG50 [35]: 10 µM; GI50 at 4 h [36]: 10 µM; IG50 [37]: 10 µM
CC(=O)c1c(C)n(CCCCl)c2c1c(-c1ccc3c(c1)OCO3)nc1ccccc12 | 76.2 | 76.7 | 69.4 | 67.3 | 83.3 | 77.1 | 71.5 | 102 | 83.2 | 71 | 63.7 | 53.1 | 85.4 | 95.8 | 115 | 86.7 |  |  |  |  | growth at 10 µM [3]: 87%; growth at 10 µM [6]: 101%; growth at 10 µM [8]: 93.9%; growth at 10 µM [10]: 97.2%; growth at 10 µM [12]: 81.7%; growth at 10 µM [13]: 93.6%; growth at 10 µM [14]: 87.3%; growth at 10 µM [18]: 86%; growth at 10 µM [20]: 96.7%; growth at 10 µM [21]: 93.6%; growth at 10 µM [22]: 90%; growth at 10 µM [26]: 84.4%
CCOC(=O)c1c(C)n(-c2ccccc2)c2c1c(-c1ccccc1)nc1ccccc12 | 74.5 |  | 80.4 | 84.3 | 88.1 | 88.8 | 95.9 | 94.7 | 85.1 | 86.4 | 81.2 | 89.9 | 80.8 | 73.4 | 87 | 91 | 86 | 74.7 | 89.1 | 100 | 
CC(=O)c1c(C)[nH]c2c1c(-c1cc(Cl)cc(Cl)c1O)nc1ccccc12 | 71.4 | 74.1 | 72.8 | 51.6 | 66.7 | 58.2 | 61.9 | 118 | 74 | 74.8 | 70 | 52.2 | 56.8 | 72 | 87.4 | 77.6 |  |  |  |  | growth at 10 µM [3]: 73.1%; growth at 10 µM [6]: 89.7%; growth at 10 µM [8]: 75.6%; growth at 10 µM [10]: 75.2%; growth at 10 µM [12]: 83.5%; growth at 10 µM [13]: 85.6%; growth at 10 µM [14]: 75.1%; growth at 10 µM [18]: 72.8%; growth at 10 µM [20]: 79.9%; growth at 10 µM [21]: 75.2%; growth at 10 µM [22]: 73.6%; growth at 10 µM [26]: 71.2%
